The structures appear in SMILES notation. pIC50: −log10 of the molar value.

Sequence of human ACC2 (O00763 129-2458): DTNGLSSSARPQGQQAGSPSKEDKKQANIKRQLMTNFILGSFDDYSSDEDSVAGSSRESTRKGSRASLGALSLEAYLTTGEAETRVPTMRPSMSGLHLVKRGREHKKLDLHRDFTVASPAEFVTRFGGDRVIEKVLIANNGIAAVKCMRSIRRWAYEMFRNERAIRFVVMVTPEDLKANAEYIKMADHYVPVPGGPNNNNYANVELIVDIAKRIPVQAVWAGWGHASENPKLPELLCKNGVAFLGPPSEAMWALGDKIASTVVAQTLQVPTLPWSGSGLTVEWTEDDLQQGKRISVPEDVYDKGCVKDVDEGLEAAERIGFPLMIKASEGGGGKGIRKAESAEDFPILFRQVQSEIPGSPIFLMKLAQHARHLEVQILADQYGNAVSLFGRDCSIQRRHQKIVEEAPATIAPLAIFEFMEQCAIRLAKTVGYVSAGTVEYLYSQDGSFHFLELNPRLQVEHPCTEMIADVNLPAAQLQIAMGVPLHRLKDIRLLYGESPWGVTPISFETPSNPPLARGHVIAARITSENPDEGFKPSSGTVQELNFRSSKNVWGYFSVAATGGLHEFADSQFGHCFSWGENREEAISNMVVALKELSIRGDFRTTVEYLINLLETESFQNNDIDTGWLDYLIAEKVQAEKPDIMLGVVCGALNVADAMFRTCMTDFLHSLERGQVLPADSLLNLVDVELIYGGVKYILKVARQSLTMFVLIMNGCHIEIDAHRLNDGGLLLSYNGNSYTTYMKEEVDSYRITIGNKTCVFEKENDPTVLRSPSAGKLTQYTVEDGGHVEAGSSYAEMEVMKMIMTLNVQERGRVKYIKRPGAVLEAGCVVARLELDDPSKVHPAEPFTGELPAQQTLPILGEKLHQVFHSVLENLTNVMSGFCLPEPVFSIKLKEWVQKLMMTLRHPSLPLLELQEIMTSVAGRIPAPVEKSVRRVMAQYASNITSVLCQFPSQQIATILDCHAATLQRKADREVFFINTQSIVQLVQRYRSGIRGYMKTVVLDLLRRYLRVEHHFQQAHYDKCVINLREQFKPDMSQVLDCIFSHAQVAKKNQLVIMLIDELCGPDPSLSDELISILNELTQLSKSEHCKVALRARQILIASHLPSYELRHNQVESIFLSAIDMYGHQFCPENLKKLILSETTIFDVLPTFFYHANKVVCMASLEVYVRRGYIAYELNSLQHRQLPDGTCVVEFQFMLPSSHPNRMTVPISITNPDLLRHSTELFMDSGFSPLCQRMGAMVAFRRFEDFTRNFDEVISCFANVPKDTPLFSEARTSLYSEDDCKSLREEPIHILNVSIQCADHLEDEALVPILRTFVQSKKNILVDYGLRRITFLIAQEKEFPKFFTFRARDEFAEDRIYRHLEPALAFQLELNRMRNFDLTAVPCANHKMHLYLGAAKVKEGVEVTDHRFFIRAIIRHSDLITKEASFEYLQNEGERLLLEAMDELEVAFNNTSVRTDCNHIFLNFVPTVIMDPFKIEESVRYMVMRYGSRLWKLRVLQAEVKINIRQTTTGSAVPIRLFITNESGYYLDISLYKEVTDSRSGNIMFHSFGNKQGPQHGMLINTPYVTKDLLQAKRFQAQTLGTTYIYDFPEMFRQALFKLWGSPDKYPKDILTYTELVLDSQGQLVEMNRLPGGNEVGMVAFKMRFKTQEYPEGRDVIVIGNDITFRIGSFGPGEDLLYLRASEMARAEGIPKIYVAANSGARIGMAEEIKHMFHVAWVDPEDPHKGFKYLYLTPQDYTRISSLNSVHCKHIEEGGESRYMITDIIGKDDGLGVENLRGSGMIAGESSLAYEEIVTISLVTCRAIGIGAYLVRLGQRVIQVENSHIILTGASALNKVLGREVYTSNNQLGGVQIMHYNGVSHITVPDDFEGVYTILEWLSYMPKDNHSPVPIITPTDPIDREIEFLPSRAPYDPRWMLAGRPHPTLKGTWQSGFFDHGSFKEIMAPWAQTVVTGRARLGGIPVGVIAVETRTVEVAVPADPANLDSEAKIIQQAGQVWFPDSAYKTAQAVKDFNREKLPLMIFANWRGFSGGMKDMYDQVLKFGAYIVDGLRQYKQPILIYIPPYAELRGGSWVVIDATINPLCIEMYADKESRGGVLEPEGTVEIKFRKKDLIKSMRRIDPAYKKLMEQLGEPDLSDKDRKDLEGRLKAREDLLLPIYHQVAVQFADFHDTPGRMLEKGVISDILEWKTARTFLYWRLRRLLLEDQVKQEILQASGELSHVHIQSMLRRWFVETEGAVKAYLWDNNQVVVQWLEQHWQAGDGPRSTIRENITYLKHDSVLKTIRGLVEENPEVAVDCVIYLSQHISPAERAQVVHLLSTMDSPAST

The experiment addresses human ACC2 (Homo sapiens (Human), UniProt O00763). In words: ACC2 assay (spectrophotometric 384 well assay, NADH-linked kinetic method). The class given is biochemical. To be noted: hACC2 construct lacking 128 N-terminal amino acids; coupled lactate dehydrogenase/pyruvate kinase reaction, 340 nm, 25° C. The procedure: Spectrophotometric 384 Well Assay
Malonyl CoA formation by acetyl CoA carboxylases is stoichometrically linked to the consumption of ATP. ACC2 activity is measured in a NADH-linked kinetic method measuring ADP generated during the ACC reaction using a coupled lactate dehydrogenase/pyruvate kinase reaction.
The protein is then expressed in insect cells using a baculoviral expression system. Protein purification is performed by anion exchange.
All compounds are dissolved in dimethyl sulfoxide (DMSO) to a concentration of 10 mM.
The enzymatic reaction is then started by addition of a mixture of NADH, acetyl Coenzyme A (both 200 μM f.c.) and ATP (500 uM f.c.). The decrease of the optical density (slope S) is then determined at 25° C. at a wavelength of 340 nm over 15 minutes in a spectrophotometric reader.
Each assay microtiter plate contains wells with vehicle instead of compound as controls for the non-inhibited enzyme (100% CTL; ‘HIGH’) and wells without acetyl-CoA as controls for non-specific NADH degradation (0% CTL; ‘LOW’).
Regarding `CC(=O)N[C@@H](C)c1ccc(O[C@@H]2CCN(c3ncnc(OCC(C)(C)O)c3Cl)C2)cc1` [Example 7.42], the pIC50 was 7.09.

The compound `CCN(C)c1ncnc(N2CC[C@@H](Oc3ccc([C@H](C)NC(C)=O)cc3)C2)c1F` [Example 8.94] had a pIC50 of 6.78.

For the compound `CC(=O)N[C@@H](C)c1ccc(O[C@@H]2CCN(c3ncnc(N4CCCCC4)c3Cl)C2)cc1` [Example 8.112], the pIC50 is 7.28.

In turn, `C[C@H](NC(=O)c1cncs1)c1ccc(O[C@@H]2CCN(c3ccnc(N(C)CCC#N)n3)C2)cc1` [Example 8.98] showed a pIC50 of 6.67.

Consider `CC(=O)N[C@@H](C)c1ccc(O[C@@H]2CCN(c3nc(N(C)CC(C)(C)O)ncc3Cl)C2)cc1` [Example 8.266], for which the pIC50 is 6.00.

For `CC(=O)N[C@@H](C)c1ccc(O[C@@H]2CCN(c3ncnc(N(C)C4CCC4)c3F)C2)cc1` [Example 8.232], the pIC50 is 7.22.

With `CC(=O)N[C@@H](C)c1ccc(O[C@@H]2CCN(c3nc(N4CCC[C@H]4C)ncc3F)C2)cc1` [Example 8.283], the pIC50 is 7.24. This pIC50 and that of the compound before are within 0.2 log units of each other.

For the compound `CC(=O)N[C@@H](C)c1ccc(O[C@@H]2CCN(c3ncnc(OCC(C)(F)F)c3Cl)C2)cc1` [Example 7.39], the pIC50 was 7.22. The pIC50 values of the last two compounds are within 0.2 log units of each other.

`CC(=O)N[C@@H](C)c1ccc(O[C@@H]2CCN(c3nc(N4CC[C@@H](F)C4)ncc3F)C2)cc1` [Example 8.181] had a pIC50 of 6.27.

In turn, `CC(=O)N[C@@H](C)c1ccc(O[C@@H]2CCN(c3nccc(C(F)(F)F)n3)C2)cc1` [Example 6.23] gave a pIC50 of 5.76. This pIC50 is 0.51 log units lower than that of the compound before.

Turning to `CC(=O)Nc1nc(C)c(C(=O)N[C@@H](C)c2ccc(OC3CCN(c4ccnc(N(C)CC(F)F)n4)C3)cc2)s1` (stereo partly shown) [Example 2.10], the pIC50 is 6.94. Against the preceding compound, the pIC50 is 1.18 log units higher.

For the compound `C[C@H](NC(=O)c1cncs1)c1ccc(O[C@@H]2CCN(c3ccnc(C(F)(F)F)n3)C2)cc1` [Example 6.16], the pIC50 is 6.82.

Turning to `COCCCN(C)c1ncnc(N2CC[C@@H](Oc3ccc([C@H](C)NC(C)=O)cc3)C2)c1F` [Example 8.270], the pIC50 was 6.34.

On to `CCCN(C)c1ncc(C#N)c(N2CC[C@@H](Oc3ccc([C@H](C)NC(C)=O)cc3)C2)n1` [Example 8.34], for which the negative-log IC50 (pIC50) is 5.96.

On to `CC(=O)N[C@@H](C)c1ccc(O[C@@H]2CCN(c3nc(OC4CCC4)ncc3F)C2)cc1` [Example 7.11], for which the pIC50 was 6.43.

`CC(=O)N[C@@H](C)c1ccc(O[C@@H]2CCN(c3nc(N(C)CCO)ncc3F)C2)cc1` [Example 8.205] showed a pIC50 of 6.22.

In turn, `CC(=O)N[C@@H](C)c1ccc(O[C@@H]2CCN(c3nc(N(C)CCOC(C)(C)C)ncc3Cl)C2)cc1` [Example 8.192] gave a pIC50 of 6.19.

Turning to `COc1c(OC2CCCC2)ncnc1N1CC[C@@H](Oc2ccc([C@H](C)NC(C)=O)cc2)C1` [Example 7.55], the pIC50 is 7.16.

With `COC[C@H]1CCCN1c1ncc(F)c(N2CC[C@@H](Oc3ccc([C@H](C)NC(C)=O)cc3)C2)n1` [Example 8.182], the pIC50 was 5.95.

As for `CC(=O)N[C@@H](C)c1ccc(O[C@@H]2CCN(c3ncnc(N(C)CCC(F)(F)F)c3F)C2)cc1` [Example 8.159], the pIC50 is 6.82.

The compound `CC(=O)N[C@@H](C)c1ccc(O[C@@H]2CCN(c3ccnc(C(C)C)n3)C2)cc1` [Example 6.9] had a pIC50 of 6.18.

`COc1c(OCC(C)(F)F)ncnc1N1CC[C@@H](Oc2ccc([C@H](C)NC(C)=O)cc2)C1` [Example 7.49] gave a pIC50 of 6.93.

In the case of `CC(=O)N[C@@H](C)c1ccc(O[C@@H]2CCN(c3ncnc(N(C)C4CCCC4)c3F)C2)cc1` [Example 8.125], the pIC50 is 7.05.

As to `CC(=O)N[C@@H](C)c1ccc(O[C@@H]2CCN(c3nc(N4CCOC(C)(C)C4)ncc3F)C2)cc1` [Example 8.224], the pIC50 was 6.77.

As for `CCN(C)c1ccnc(N2CC[C@@H](Oc3ccc([C@H](C)NC(C)=O)cc3)C2)n1` [Example 6.11], the pIC50 is 6.61.

Turning to `CC(=O)N[C@@H](C)c1ccc(O[C@@H]2CCN(c3ncnc(OC4CCC4)c3Cl)C2)cc1` [Example 7.41], the pIC50 was 7.41.

`CC(=O)N[C@@H](C)c1ccc(O[C@@H]2CCN(c3nccc(N4CCC(C)(C)C4)n3)C2)cc1` [Example 8.81] had a pIC50 of 6.01.

Take `CC(=O)N[C@@H](C)c1ccc(O[C@@H]2CCN(c3nc(N4CCC(F)(F)CC4)ncc3Cl)C2)cc1` [Example 8.187]: the pIC50 was 6.66.

Compound `CC(=O)N[C@@H](C)c1ccc(O[C@@H]2CCN(c3ncnc(N(C)C4CCCOC4)c3F)C2)cc1` (stereo partly shown) [Example 8.236] had a pIC50 of 6.50.

The compound `CC(=O)N[C@@H](C)c1ccc(O[C@@H]2CCN(c3ncnc(OC[C@H]4CC4(F)F)c3F)C2)cc1` [Example 7.45] gave a pIC50 of 7.00. This pIC50 lies 0.50 log units higher than the previous one.

In turn, `COc1c(OCC(C)(C)OC)ncnc1N1CC[C@@H](Oc2ccc([C@H](C)NC(C)=O)cc2)C1` [Example 7.61] had a pIC50 of 6.63.

For the compound `CC(=O)N[C@@H](C)c1ccc(O[C@@H]2CCN(c3nc(N4CC=CC4)ncc3F)C2)cc1` [Example 8.244], the pIC50 was 6.78.

Compound `CC(=O)N[C@@H](C)c1ccc(O[C@@H]2CCN(c3nc(N4CCC(C)(C)C4)ncc3Cl)C2)cc1` [Example 8.191] showed a pIC50 of 6.65.

Turning to `CC(=O)N[C@@H](C)c1ccc(O[C@@H]2CCN(c3nc(N4CCC5(CC5)C4)ncc3Cl)C2)cc1` [Example 8.276], the pIC50 is 6.76.

The compound `CCOc1ncnc(N2CC[C@@H](Oc3ccc([C@H](C)NC(C)=O)cc3)C2)c1OC` [Example 7.44] gave a pIC50 of 6.56. This pIC50 is 0.20 log units lower than that of the compound before.

The compound `COc1c(OCC2CC2)ncnc1N1CC[C@@H](Oc2ccc([C@H](C)NC(=O)C3CC(F)C3)cc2)C1` (stereo partly shown) [Example 2.30] had a pIC50 of 6.28. Compared with the last compound, the pIC50 is 0.28 log units lower.

The compound `CC(=O)N[C@@H](C)c1ccc(O[C@@H]2CCN(c3nc(N4CCC[C@H]4C)ncc3Cl)C2)cc1` [Example 8.285] had a pIC50 of 7.05.

Compound `CC(=O)N[C@@H](C)c1ccc(O[C@@H]2CCN(c3ncnc(OC4CCCC4)c3Cl)C2)cc1` [Example 7.53] had a pIC50 of 7.49. This pIC50 is 0.44 log units higher than that of the compound before.

Compound `CC(=O)N[C@@H](C)c1ccc(O[C@@H]2CCN(c3ccnc(N4CCCC4(C)C)n3)C2)cc1` [Example 8.243] showed a pIC50 of 6.25.

Take `CC(=O)N[C@@H](C)c1ccc(O[C@@H]2CCN(c3ccnc(N(C)CC(F)F)n3)C2)cc1` [Example 8.44]: the pIC50 is 7.26.

Compound `CC(=O)N[C@@H](C)c1ccc(O[C@@H]2CCN(c3ncnc(N4CCCC4)c3F)C2)cc1` [Example 8.129] showed a negative logarithm of the IC50 (pIC50) of 7.17.

In the case of `COC1CCN(c2ncc(Cl)c(N3CC[C@@H](Oc4ccc([C@H](C)NC(C)=O)cc4)C3)n2)CC1` [Example 8.153], the pIC50 is 6.17.

As to `CC(=O)N[C@@H](C)c1ccc(O[C@@H]2CCN(c3nc(N4C[C@@H]5CC[C@@H](C4)O5)ncc3F)C2)cc1` [Example 8.279], the pIC50 was 6.43. Against the preceding compound, the pIC50 is 0.26 log units higher.

In turn, `CC(=O)N[C@@H](C)c1ccc(O[C@@H]2CCN(c3ccnc(N(C)C4CCCC4)n3)C2)cc1` [Example 8.20] showed a pIC50 of 6.77.

The compound `COc1c(OCC2CC2)ncnc1N1CC[C@@H](Oc2ccc([C@H](C)NC(=O)c3cnco3)cc2)C1` [Example 2.27] showed a pIC50 of 6.99.

In the case of `C[C@H](NC(=O)c1cn[nH]c1)c1ccc(OC2CCN(c3ncnc(OCC4CC4)c3F)C2)cc1` (stereo partly shown) [Example 2.20], the pIC50 is 7.28. Against the preceding compound, the pIC50 is 0.29 log units higher.

Take `CC(=O)N[C@@H](C)c1ccc(O[C@@H]2CCN(c3nc(N4CC[C@H](F)C4)ncc3F)C2)cc1` [Example 8.184]: the pIC50 was 6.66.

Turning to `CC(=O)N[C@@H](C)c1ccc(O[C@@H]2CCN(c3ccnc(N4[C@H](C)COC[C@H]4C)n3)C2)cc1` [Example 8.87], the pIC50 was 6.89.

Regarding `COc1c(NCC2(O)CCC2)ncnc1N1CC[C@@H](Oc2ccc([C@H](C)NC(C)=O)cc2)C1` [Example 8.300], the pIC50 is 6.27.

For `CCN(C)c1ncc(Cl)c(N2CC[C@@H](Oc3ccc([C@H](C)NC(C)=O)cc3)C2)n1` [Example 8.56], the pIC50 is 7.22.

In turn, `CCN(c1nccc(N2CC[C@@H](Oc3ccc([C@H](C)NC(C)=O)cc3)C2)n1)C(C)C` [Example 8.260] showed a pIC50 of 6.74. Against the preceding compound, the pIC50 is 0.48 log units lower.

In the case of `CC(=O)N[C@@H](C)c1ccc(O[C@@H]2CCN(c3nc(N4CCOC(C)C4)ncc3Cl)C2)cc1` (stereo partly shown) [Example 8.186], the pIC50 is 6.69. This pIC50 and that of the compound before are within 0.2 log units of each other.

With `CC(=O)N[C@@H](C)c1ccc(O[C@@H]2CCN(c3ccnc(N(C)C4CCOCC4)n3)C2)cc1` [Example 8.195], the pIC50 is 6.41.

Compound `Cc1nocc1C(=O)N[C@@H](C)c1ccc(OC2CCN(c3ccnc(N4CCOCC4)n3)C2)cc1` (stereo partly shown) [Example 2.4] showed a pIC50 of 6.68.

For the compound `CCC(=O)Nc1nc(C)c(C(=O)N[C@@H](C)c2ccc(O[C@@H]3CCN(c4ncnc(OCC5CC5)c4OC)C3)cc2)s1` [Example 7.63], the pIC50 was 6.95.

Turning to `CC(=O)N[C@@H](C)c1ccc(O[C@@H]2CCN(c3ncnc(N4CCC[C@H]4C)c3F)C2)cc1` [Example 8.286], the pIC50 is 6.78. The pIC50 values of the last two compounds are within 0.2 log units of each other.

`CC(=O)N[C@@H](C)c1ccc(O[C@@H]2CCN(c3nc(N4CCCC(F)(F)C4)ncc3Cl)C2)cc1` [Example 8.189] showed a pIC50 of 6.50.

In turn, `C[C@H](NC(=O)c1cncs1)c1ccc(O[C@@H]2CCN(c3nc(N(C)C)ncc3F)C2)cc1` [Example 8.99] had a pIC50 of 6.92.

Compound `CCNC(=O)N[C@@H](C)c1ccc(OC2CCN(c3ncnc(OCC4CC4)c3F)C2)cc1` (stereo partly shown) [Example 3.14] gave a pIC50 of 6.92.

`CC(=O)N[C@@H](C)c1ccc(O[C@@H]2CCN(c3ncnc(N4CCC(CO)C4)c3F)C2)cc1` (stereo partly shown) [Example 8.201] showed a pIC50 of 6.53.

`CCN(CCOC)c1nccc(N2CC[C@@H](Oc3ccc([C@H](C)NC(C)=O)cc3)C2)n1` [Example 8.106] showed a pIC50 of 6.80.

As a reminder, the pIC50 is −log10 of the IC50, conventionally taken in molar units.
